Where two headings read alike, the source gives them in different places.
Columns and labels:
calcium channels = molecular target: T1, calcium channels (Rattus norvegicus, UniProt P22002); assay: [3H]nitrendipine competition binding, calcium channels, rat cardiac muscle membranes; settings: for Ki: read-out: Calcium Channel (pK1) (converted)
T1 construct: from tissue; host or cells: rat cardiac muscle membranes
Experimental: Briefly, the tissue was minced and homogenized in 50 mM Tris-HCl (pH 7.4) containing 0.1 mM phenylmethylsulfonyl fluoride. The homogenates were centrifuged at 1000 g for 15 minutes, the resulting supernatant was centrifuged at 45,000 g for 15 minutes. The 45,000 g pellet was suspended in buffer and centrifuged a second time.

[1] = molecular target: T2, human α2A adrenergic receptor (Homo sapiens, UniProt P08913); assay: Competition binding, [3H]rauwolscine, α2A receptor
T2 sequence (P08913 1-465): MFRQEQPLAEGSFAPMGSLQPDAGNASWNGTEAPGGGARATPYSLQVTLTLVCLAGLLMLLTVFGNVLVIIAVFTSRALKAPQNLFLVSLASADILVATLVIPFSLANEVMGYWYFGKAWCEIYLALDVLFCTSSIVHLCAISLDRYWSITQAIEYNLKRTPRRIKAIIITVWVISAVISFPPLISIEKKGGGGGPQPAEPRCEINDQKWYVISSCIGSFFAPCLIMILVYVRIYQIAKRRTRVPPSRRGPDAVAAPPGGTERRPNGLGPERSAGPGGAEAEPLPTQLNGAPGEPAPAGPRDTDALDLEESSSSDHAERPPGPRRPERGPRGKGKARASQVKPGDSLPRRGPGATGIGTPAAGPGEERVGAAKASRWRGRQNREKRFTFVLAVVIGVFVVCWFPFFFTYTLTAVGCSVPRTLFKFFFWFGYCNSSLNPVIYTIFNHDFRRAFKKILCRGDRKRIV
Experimental: To determine the potency of α1 antagonists at the α2 receptors, LM(tk−) cell lines stably transfected with the genes encoding the α2A, α2B, and α2C receptors were used. The cell line expressing the α2A receptor is designated L-α2A, and was deposited on Nov. […] The cell line expressing the α2B receptor is designated L-NGC-α2B, and was deposited on Oct. […] The cell line expressing the α2C receptor is designated L-α2C, and was deposited on Nov. […] Cell lysates were prepared as described above (see Radioligand Binding Assays), and suspended in 25 mM glycylglycine buffer (pH 7.6 at room temperature).

human 5HT1Dα receptor = molecular target: T3, human 5HT1Dα receptor (Homo sapiens, UniProt P28221); assay: [3H]serotonin competition binding, 5HT1Dα receptor
T3 construct: host or cells: LM(tk-) clonal cell line Ltk-8-30-84
T3 sequence (P28221 whole entry): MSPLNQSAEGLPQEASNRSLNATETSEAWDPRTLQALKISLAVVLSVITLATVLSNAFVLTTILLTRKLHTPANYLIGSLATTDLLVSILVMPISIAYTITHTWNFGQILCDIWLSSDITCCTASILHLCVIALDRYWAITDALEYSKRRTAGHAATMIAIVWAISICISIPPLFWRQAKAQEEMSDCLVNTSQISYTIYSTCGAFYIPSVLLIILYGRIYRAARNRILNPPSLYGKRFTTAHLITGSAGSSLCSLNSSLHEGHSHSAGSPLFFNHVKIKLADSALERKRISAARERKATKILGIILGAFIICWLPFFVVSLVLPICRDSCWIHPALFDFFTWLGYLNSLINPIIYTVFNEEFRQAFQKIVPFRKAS
Experimental: (§1) 5HT1Dα, 5HT1Dβ, 5HT1E, 5HT1F Receptors: The cell lysates of LM(tk−) clonal cell line stably transfected with the genes encoding each of these 5HT receptor-subtypes were prepared as described above. The cell line for the 5HT1Dα receptor, designated as Ltk-8-30-84, was deposited on Apr. […] The cell for the 5HT1Dβ receptor, designated as Ltk-11, was deposited on Apr. […] The cell line for the 5HT1E receptor, designated 5 HT1E-7, was deposited on Nov. […] The cell line for the 5HT1F receptor, designated L-5-HT1F, was deposited on Dec. […] These preparations were suspended in 50 mM Tris-HCl buffer (pH 7.4 at 37° C.) containing 10 mM MgCl2, 0.2 mM EDTA, 10 μM pargyline, and 0.1% ascorbate.

[2] = molecular target: T4, human histamine H2 receptor (Homo sapiens, UniProt P25021); assay: [3H]tiotidine binding, histamine H2 receptor; settings: for Ki: read-out: Histamine H2 (pK1) (converted)
T4 construct: host or cells: COS-7, transient, DEAE-dextran
T4 sequence (P25021 whole entry): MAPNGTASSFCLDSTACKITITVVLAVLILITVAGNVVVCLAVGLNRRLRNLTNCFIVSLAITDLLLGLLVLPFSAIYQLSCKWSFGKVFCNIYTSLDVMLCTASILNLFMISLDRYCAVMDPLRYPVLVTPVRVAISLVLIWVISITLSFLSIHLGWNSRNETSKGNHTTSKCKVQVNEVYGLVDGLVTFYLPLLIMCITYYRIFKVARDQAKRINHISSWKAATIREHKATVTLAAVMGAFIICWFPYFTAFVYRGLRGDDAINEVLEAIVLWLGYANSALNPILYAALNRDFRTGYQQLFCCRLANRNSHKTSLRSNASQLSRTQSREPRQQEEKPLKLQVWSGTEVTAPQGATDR
Text: The coding sequence of the human H2 receptor was obtained from a human placenta genomic library, and cloned into the cloning site of PCEXV-3 eukaryotic expression vector. The plasmid DNA for the H2 receptor is designated pcEXV-H2, and was deposited on Nov. […] This construct was transfected into COS-7 cells by the DEAE-dextran method.

human D2 receptor = molecular target: T5, human D2 receptor (Homo sapiens, UniProt P14416); assay: [3H]spiperone binding, dopamine D2 receptor; settings: for Ki: read-out: Dopamine D2 (pK1)
T5 construct: host or cells: COS-7, transient, DEAE-dextran
Experimental: The potency of α1 antagonists at the D2 receptor was determined using membrane preparations from COS-7 cells transfected with the gene encoding the human D2 receptor. The coding region for the human D2 receptor was obtained from a human striatum cDNA library, and cloned into the cloning site of PCDNA 1 eukariotic expression vector. The plasmid DNA for the D2 receptor is designated pcEXV-D2, and was deposited on Nov. […] This construct was transfected into COS-7 cells by the DEAE-dextran method. […] The cell lysates were incubated with [3H]spiperone (2 nM), using 10 μM (+)Butaclamol to determine nonspecific binding.

human 5HT1E receptor = molecular target: T6, human 5HT1E receptor (Homo sapiens, UniProt P28566); assay: [3H]serotonin competition binding, 5HT1E receptor
T6 construct: host or cells: LM(tk-) clonal cell line 5HT1E-7
T6 sequence (P28566 whole entry): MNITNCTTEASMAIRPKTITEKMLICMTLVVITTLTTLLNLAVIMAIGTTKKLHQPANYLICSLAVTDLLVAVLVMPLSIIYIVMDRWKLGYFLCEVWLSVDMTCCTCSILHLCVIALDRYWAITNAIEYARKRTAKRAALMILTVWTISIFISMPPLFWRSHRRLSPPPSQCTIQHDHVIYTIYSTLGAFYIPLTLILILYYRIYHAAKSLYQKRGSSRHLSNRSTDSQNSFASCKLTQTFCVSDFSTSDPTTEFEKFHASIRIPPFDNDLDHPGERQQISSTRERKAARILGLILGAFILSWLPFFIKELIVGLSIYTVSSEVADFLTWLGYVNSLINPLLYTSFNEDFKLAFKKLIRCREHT
Experimental: as §1

[3] = molecular target: T7, human α1C adrenergic receptor (Homo sapiens, UniProt P35348); assay: Radioligand binding, [3H]prazosin, cloned human α1C adrenergic receptor
T7 construct: The entire coding region of α1C (1401 bp); expressed in transfected cells
T7 sequence (P35348 1-466): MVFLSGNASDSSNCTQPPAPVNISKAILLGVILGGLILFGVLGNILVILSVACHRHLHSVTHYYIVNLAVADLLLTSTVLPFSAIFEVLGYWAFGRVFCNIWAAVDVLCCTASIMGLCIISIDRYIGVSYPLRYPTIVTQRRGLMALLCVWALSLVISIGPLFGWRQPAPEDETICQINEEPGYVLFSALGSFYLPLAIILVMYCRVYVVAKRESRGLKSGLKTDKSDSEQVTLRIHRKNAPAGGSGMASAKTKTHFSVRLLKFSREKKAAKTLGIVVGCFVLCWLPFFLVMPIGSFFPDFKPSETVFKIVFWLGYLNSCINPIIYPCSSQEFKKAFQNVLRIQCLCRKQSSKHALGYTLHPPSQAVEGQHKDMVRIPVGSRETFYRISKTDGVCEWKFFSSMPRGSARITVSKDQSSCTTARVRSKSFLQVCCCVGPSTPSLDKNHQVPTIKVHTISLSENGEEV
Text: The construct involved ligating three partial overlapping fragments: a 5′ 0.6 kb HincII genomic clone, a central 1.8 EcoRI hippocampal cDNA clone, and a 3′ 0.6 Kb PstI genomic clone. The hippocampal cDNA fragment overlaps with the 5′ and 3′ genomic clones so that the HincII and PstI sites at the 5′ and 3′ ends of the cDNA clone, respectively, were utilized for ligation. This full-length clone was cloned into the KpnI site of the expression vector, using the 5′ and 3′ KpnI sites of the fragment, derived from vector (i.e., pBluescript) and 3′-untranslated sequences, respectively. Stable cell lines were selected as described above.

[4] = molecular target: T8, human histamine H1 receptor (Homo sapiens, UniProt P35367); assay: [3H]mepyramine binding, histamine H1 receptor; settings: for Ki: read-out: Histamine H1 (pK1) (converted)
T8 construct: host or cells: COS-7, transient, DEAE-dextran
T8 sequence (P35367 whole entry): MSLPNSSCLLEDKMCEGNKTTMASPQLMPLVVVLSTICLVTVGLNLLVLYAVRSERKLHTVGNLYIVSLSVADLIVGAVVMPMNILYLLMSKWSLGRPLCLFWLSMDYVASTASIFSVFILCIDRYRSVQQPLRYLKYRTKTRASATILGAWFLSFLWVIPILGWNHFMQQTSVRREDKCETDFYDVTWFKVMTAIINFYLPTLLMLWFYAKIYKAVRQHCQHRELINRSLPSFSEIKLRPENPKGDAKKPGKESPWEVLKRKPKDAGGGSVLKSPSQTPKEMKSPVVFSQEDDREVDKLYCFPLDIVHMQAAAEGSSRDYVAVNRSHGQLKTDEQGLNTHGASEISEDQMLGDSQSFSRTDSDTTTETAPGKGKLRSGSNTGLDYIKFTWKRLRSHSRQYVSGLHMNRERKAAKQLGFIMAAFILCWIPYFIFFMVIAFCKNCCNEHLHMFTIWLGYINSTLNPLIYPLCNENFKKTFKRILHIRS
Text: The coding sequence of the human histamine H1 receptor, homologous to the bovine H1 receptor, was obtained from a human hippocampal cDNA library, and was cloned into the eukaryotic expression vector pCEXV-3. The plasmid DNA for the H1 receptor is designated pcEXV-H1, and was deposited on Nov. […] This construct was transfected into COS-7 cells by the DEAE-dextran method.

[5] = Table 2, rat cardiac muscle membranes
[6] = Table 2, cloned human receptor, read-out: Alpha-2 Adrenergic a2a (pK1) (converted)
[7] = Table 2, cloned human receptor, read-out: Serotonin 5HT1Da (pK1)
[8] = Table 2, cloned human receptor, read-out: Serotonin 5HT1E (pK1)

T1 sequence (P22002 whole entry, other chains not shown): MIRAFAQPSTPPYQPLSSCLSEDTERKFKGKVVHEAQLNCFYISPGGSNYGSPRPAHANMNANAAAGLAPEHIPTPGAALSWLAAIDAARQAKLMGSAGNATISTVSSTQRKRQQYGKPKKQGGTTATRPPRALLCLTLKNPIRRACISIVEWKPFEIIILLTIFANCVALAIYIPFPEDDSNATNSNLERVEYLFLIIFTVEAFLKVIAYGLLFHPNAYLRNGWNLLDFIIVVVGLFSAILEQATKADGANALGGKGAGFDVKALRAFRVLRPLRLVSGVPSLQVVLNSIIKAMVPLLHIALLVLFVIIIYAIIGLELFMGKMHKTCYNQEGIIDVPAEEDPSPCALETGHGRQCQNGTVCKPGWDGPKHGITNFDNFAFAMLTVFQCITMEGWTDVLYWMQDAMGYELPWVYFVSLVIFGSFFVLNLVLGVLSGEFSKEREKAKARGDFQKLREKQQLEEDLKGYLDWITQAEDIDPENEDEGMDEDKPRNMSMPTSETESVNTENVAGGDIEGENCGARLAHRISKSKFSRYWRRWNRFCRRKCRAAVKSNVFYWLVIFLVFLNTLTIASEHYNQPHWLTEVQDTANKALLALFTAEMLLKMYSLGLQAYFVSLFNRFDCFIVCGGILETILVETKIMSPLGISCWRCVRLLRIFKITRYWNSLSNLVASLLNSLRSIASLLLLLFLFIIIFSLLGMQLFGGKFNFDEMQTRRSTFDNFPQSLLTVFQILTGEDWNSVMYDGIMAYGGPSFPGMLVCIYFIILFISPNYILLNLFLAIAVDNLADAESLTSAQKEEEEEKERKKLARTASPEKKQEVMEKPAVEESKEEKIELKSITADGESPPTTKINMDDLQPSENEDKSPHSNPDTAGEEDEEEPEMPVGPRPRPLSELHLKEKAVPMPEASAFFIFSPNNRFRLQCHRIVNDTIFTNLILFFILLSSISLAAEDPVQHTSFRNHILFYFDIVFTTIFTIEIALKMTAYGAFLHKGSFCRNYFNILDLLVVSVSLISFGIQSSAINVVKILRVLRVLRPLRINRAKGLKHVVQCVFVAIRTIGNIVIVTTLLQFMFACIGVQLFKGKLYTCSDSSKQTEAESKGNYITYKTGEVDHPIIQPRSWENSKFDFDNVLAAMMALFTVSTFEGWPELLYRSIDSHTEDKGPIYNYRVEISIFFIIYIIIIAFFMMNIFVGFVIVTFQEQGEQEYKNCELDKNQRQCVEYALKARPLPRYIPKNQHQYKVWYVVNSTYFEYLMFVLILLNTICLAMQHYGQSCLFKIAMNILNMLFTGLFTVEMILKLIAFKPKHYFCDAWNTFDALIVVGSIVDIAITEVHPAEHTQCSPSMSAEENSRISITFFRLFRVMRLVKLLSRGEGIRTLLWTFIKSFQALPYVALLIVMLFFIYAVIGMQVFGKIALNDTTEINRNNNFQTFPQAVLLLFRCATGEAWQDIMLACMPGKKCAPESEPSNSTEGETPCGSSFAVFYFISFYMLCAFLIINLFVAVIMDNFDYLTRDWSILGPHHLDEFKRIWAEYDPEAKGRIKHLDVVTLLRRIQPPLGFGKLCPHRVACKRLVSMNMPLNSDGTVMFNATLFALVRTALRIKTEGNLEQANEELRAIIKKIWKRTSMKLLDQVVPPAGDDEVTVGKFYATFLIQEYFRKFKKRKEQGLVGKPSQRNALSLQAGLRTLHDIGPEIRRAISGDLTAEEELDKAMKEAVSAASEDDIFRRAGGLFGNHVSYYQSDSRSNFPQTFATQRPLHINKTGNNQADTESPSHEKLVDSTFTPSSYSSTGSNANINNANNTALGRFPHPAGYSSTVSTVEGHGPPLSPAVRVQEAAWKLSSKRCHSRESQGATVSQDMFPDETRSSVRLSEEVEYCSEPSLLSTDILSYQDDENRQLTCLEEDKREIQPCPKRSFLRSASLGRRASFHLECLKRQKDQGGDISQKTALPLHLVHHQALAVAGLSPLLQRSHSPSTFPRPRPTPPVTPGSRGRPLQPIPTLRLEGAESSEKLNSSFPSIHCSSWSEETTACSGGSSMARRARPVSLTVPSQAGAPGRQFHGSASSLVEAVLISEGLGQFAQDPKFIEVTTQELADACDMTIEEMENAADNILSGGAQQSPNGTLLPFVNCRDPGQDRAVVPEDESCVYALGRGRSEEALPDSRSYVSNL
T1 sequence (P54290 25-944 partner limits assumed, other chains not shown): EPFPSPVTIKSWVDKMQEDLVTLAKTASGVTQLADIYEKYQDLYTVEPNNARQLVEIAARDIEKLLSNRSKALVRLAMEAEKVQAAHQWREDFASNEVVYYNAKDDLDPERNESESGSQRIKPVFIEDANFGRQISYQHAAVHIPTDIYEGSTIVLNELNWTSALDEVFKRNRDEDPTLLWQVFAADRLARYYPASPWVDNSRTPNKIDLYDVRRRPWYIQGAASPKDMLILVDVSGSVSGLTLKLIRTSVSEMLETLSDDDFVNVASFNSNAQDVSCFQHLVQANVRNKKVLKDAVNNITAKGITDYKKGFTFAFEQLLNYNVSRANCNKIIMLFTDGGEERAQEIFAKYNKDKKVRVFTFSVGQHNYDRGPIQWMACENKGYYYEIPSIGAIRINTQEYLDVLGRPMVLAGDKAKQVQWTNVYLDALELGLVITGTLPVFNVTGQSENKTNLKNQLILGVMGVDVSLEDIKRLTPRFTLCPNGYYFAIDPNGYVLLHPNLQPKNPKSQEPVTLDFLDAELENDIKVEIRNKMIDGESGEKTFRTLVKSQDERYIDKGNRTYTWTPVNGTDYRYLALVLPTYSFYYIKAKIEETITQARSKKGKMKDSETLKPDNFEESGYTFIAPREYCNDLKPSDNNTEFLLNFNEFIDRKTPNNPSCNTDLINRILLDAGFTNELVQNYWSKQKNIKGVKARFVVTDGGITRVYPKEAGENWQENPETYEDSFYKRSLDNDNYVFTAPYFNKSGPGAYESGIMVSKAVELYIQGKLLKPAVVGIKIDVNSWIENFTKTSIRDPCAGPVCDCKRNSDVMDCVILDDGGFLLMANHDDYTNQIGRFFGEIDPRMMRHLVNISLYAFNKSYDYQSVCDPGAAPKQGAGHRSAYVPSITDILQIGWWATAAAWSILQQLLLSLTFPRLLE
T1 sequence (P54290 945-1091 partner limits assumed, other chains not shown): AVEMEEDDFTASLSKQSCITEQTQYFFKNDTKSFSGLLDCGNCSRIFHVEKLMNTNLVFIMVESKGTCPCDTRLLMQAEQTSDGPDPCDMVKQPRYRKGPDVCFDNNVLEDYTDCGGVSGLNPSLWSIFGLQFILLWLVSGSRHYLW

Molecule	Serotonin 5HT1Da (pK1) (human 5HT1Dα receptor; Table 2, cloned human receptor)	Serotonin 5HT1E (pK1) (human 5HT1E receptor; Table 2, cloned human receptor)	Alpha-2 Adrenergic a2a (pK1) ([1]; Table 2, cloned human receptor)	Histamine H2 (pK1) ([2]; Table 2, cloned human receptor)	Dopamine D2 (pK1) (human D2 receptor; Table 2, cloned human receptor)	Human Alpha-1 Adrenergic (pK1) a1C ([3]; Table 1, cloned human receptor)	Alpha-1 Adrenergic a1C (pK1) ([3]; Table 2, cloned human receptor)	Histamine H1 (pK1) ([4]; Table 2, cloned human receptor)	Calcium Channel (pK1) (calcium channels; [5])	Ki ([2]; Table 2, cloned human receptor)	Ki (human D2 receptor; Table 2, cloned human receptor)	Ki ([4]; Table 2, cloned human receptor)	Ki (calcium channels; [5])	other results
4-fluoro-4-(8-fluoro-1,3,4,5-tetrahydro-2H-pyrido[4,3-b]indol-2-yl)butyrophenone hydrochloride [Compound A-30360, reference compound]	<6.0	<5.0	–	–	–	–	–	–	–	–	–	–	–	Calcium Channel (pK1) (calcium channels): 5.26; Alpha-2 Adrenergic a2a (pK1) [1]: 6.69; Histamine H2 (pK1) [2]: 5.77; Dopamine D2 (pK1) (human D2 receptor): <9.0; Alpha-1 Adrenergic a1C (pK1) [3]: 8.52; Human Alpha-1 Adrenergic (pK1) a1C [3]: 8.52; Histamine H1 (pK1) [4]: 6.03
COc1ccccc1N1CCN(CCCNc2c(C)c(=O)n(C)c(=O)n2C)CC1 [5-Methyl-Urapidil, 5-methylurapidil, reference compound]	7.30	–	6.63	4.47	<5.0	8.35	8.35	5.16	–	–	–	–	–	–
O=C(CCCN1CCC(NC(=O)c2ccccc2)CC1)c1ccc(Cl)cc1 [Compound 7]	<6.0	<5.0	–	6.02	<7.0	8.42	8.42	7.59	4.79	–	–	–	–	–
COC(=O)C1=C(C)NC(C)=C(C(=O)OCCCN2CCC(c3ccccc3)(c3ccccc3)CC2)C1c1ccc([N+](=O)[O-])cc1.Cl (stereo not drawn) [Compound 8, 2,6-Dimethyl-4-(4-nitrophenyl)-1,4-dihydropyridine-3,5-dicarboxylic acid [3-(4,4-diphenylpiperidin-1-yl)propyl] ester methyl ester hydrochloride]	–	–	5.99	–	–	–	–	–	6.87	776 nM	> 1000 nM	214 nM	–	Ki (human 5HT1Dα receptor): > 1000 nM; Ki (human 5HT1E receptor): > 10000 nM; Alpha-1 Adrenergic a1C (pK1) [3]: 8.48; Human Alpha-1 Adrenergic (pK1) a1C [3]: 8.48
O=C(CCCN1CCC(NC(=O)c2ccccc2)CC1)c1ccccc1 [Compound 9]	<6.0	<5.0	5.80	5.44	<7.0	7.83	7.83	7.29	4.44	–	–	–	–	–
COc1ccc(CCNCC2CCc3ccccc3C2)cc1 (stereo not drawn) [Compound 11, 2-[(4-Methoxyphenethyl)aminomethyl]-1,2,3,4-tetrahydronaphthalene]	–	–	–	–	–	–	8.36	–	–	35.5 nM	> 1000 nM	1820 nM	6610 nM	Ki [1, 6]: 138 nM; Ki (human 5HT1Dα receptor): > 1000 nM; Ki (human 5HT1E receptor): > 10000 nM; Ki ([3]; Table 1, cloned human receptor, read-out: Human Alpha-1 Adrenergic (pK1) a1C (converted)): 4.37 nM; binding affinity at α1C receptors relative to binding affinities at other receptors ([3]; versus the other receptors of Table 2): greater than ten-fold higher
O=C(NC1CCN(CCc2c[nH]c3ccccc23)CC1)c1ccccc1 [Indoramin, reference compound]	–	–	–	–	–	–	–	–	–	2340 nM	> 10 nM	42.7 nM	29500 nM	Ki [1, 6]: 11500 nM; Ki (human 5HT1Dα receptor; [7]): > 1000 nM; Ki (human 5HT1E receptor; [8]): > 10000 nM; selectivity for the human α1C receptor relative to the other human α-adrenergic receptors ([3]; cloned human receptors): slightly selective
C=Cc1sc2ccc(Cl)c3c2c1CN(C)CC3 [SKF-104856, 7-Chloro-2-ethenyl-3,4,5,6-tetrahydro-4-methylthieno[4,3,2-ef][3]benzazepine, reference compound]	–	–	–	–	–	7.60	7.60	–	–	1450 nM	> 100 nM	2570 nM	20900 nM	Ki [1]: 50.1 nM; Ki (human 5HT1Dα receptor; [7]): > 100 nM; Ki (human 5HT1E receptor; [8]): > 1000 nM
